Results taken from ChEMBL document CHEMBL3507680, “University of Dundee, Gates Library screen for HepG2 cell viability”.

Assay: Human HepG2 cell viability assay in 384 well format
Type: toxicity, cell-based
Design: dose 125 nL, time 70.5 hour; concentration not given beside the values
Details: HepG2 cells, read-out: Inhibition

Compound | cytotoxicity at 70.5 h
O=C(NCCc1nc(C2CC2)no1)[C@H]1CNC[C@H](C(=O)N2CCCC2)C1 | -1.74%
CSc1cccc(CN(C)C(=O)c2ccc(C3CCCNC3)cc2)c1 (configuration not stated) | -7.25%
CCOC(=O)C1(Cc2ccccc2)CCCN(Cc2nccn2CC)C1 (configuration not stated) | -0.0866%
OC1(CN2CCCC2)COCCN(c2cc(C(F)(F)F)ccn2)C1 (configuration not stated) | -7.83%
Cc1ccc(F)cc1CC(=O)N(CCN1CCOCC1)Cc1ccco1 | -6.95%
Cc1ccc(NC(=O)CNC(C)Cc2ccsc2)cc1F (configuration not stated) | -8.47%
CN1CCCC1CCn1ccnc1-c1nc(-c2ccccc2)no1 (configuration not stated) | 16.5%
CCn1cc(CN2CCCN(C3Cc4ccccc4C3)CC2)c(C)n1 | 24.3%
O=C(O)c1cccc(C2CCCN(S(=O)(=O)N3CCOCC3)C2)c1 (configuration not stated) | -7.39%
Cc1ccc(CN2CCN(c3cncc(N(C)C)n3)CC2=O)cc1C | -7.53%
CNC(=O)c1nc(CN2CCOC(CCCC(C)C)C2)no1 (configuration not stated) | -16.2%
COc1ccc(OC)c(C2CCN(C(=O)C3CCS(=O)(=O)CC3)C2)c1 (configuration not stated) | -7.16%
O=C(N[C@H]1COC[C@@H]1N1CCCC1)c1csc(-c2cccs2)n1 | -10.9%
Cn1ccc(C2CCCCN2C(=O)c2cccc(Cn3cccn3)c2)n1 (configuration not stated) | 8.89%
COc1ncc(-c2c(C#N)c(N)nc3c2CCc2[nH]ccc2-3)cn1 | -4.69%
COC1CCCN(c2nc(C)nc3c2CCN(Cc2ccco2)CC3)C1 (configuration not stated) | 8.06%
NC(=O)c1csc(N2CCCC(c3n[nH]c(=O)n3-c3ccccc3)C2)n1 (configuration not stated) | -6.33%
Cc1nccn1Cc1nnc(C2CCCN(Cc3ccncc3)C2)n1C (configuration not stated) | -17.2%
CCC(NC(=O)c1cnc(N(C)C)nc1C)c1ccc(S(C)(=O)=O)cc1 (configuration not stated) | -8.61%
Cc1ccc(C)c2c(O)cc(CNCc3ccc(S(N)(=O)=O)cc3)nc12 | -4.39%
CCc1oc(C(=O)N2CC[C@H]3CC[C@@H](C2)N3)cc1CN(CC)CC | -8.75%

Compound | cytotoxicity at 70.5 h
CCC[C@@H]1CN(Cc2ccc(C(F)(F)F)nc2)C[C@H]1NS(C)(=O)=O | 11.1%
CCN(CC)S(=O)(=O)N1CCC(c2nccn2Cc2ccccn2)CC1 | 12.4%
NCC(=O)N1CCCC1c1ccc(C(=O)NCc2ccoc2)s1 (configuration not stated) | -2.34%
O=C1N(CCC2CCCCC2)CCCC1(O)CNCCc1ccccc1 (configuration not stated) | 0.277%
CN(c1ncccc1CNC(=O)c1cscn1)C1CCCCC1 | 0.847%
O=C(c1cn2ccsc2n1)N1CCOCC(O)(CN2CCCC2)C1 (configuration not stated) | 1.73%
Cc1cc(N2CCCN(C(C(=O)O)c3cccc(C)c3F)CC2)ccn1 (configuration not stated) | 3.14%
C[C@@H]1CN(C2CCN(c3ccccc3)CC2)CC[C@@]1(O)C1CCOCC1 | -3.71%
Cc1ncc(CN2CCN(C(=O)C3CCC3)[C@@H]3CS(=O)(=O)C[C@@H]32)cn1 | -16.2%
O=C(CN1CCCCCC1)NCc1cccnc1Oc1ccccc1 | -2.72%
CCOC(=O)N1CCCn2nc(C(=O)NCCN(C)C)cc2C1 | -6.9%
Cn1nccc1C(=O)N1CCC(n2cc(-c3ccsc3)nn2)CC1 | -3.85%
CN(C)CC1(O)CCN(C(=O)c2ccc(-n3cnnc3)cc2Cl)C1 (configuration not stated) | 7.55%
COCCCN1CC2(CCCN(c3ncnc4[nH]ccc34)C2)CCC1=O (configuration not stated) | -6.33%
Cc1nccn1CCCC(=O)N1CCC2(CCC(=O)N(C(C)C)C2)CC1 | -4.22%
CN1C[C@H]2CNC[C@@]2(C(=O)N2CCN(c3ncccc3C#N)CC2)C1 | -6.13%
Cc1ccc(C(=O)N2C[C@@H](C(=O)O)[C@H](c3ccncc3)C2)cc1F | -5.6%
O=C(CN1CCOC1=O)N(Cc1ccccc1)Cc1nccs1 | -14.3%
Cc1noc(C)c1CN1C(=O)[C@H]2CC[C@@H]1CN(Cc1cccc(O)c1)C2 | 5.47%
O=C(CN1CCOCS1(=O)=O)NCCc1ccc(Cl)cc1 | -9.99%
CC1CNC(=O)CCN1Cc1cc(O)c2cccc(F)c2n1 (configuration not stated) | -6.4%
